In publication PMC7749613 (Journal of Cachexia, Sarcopenia and Muscle, 2020):
Bridge positions count the residues as written; N and C are the ends. Square brackets hold non-standard residues; d marks the D form. Peptide text beside a SMILES is read from it. d2Nal = N[C@H](Cc1ccc2ccccc2c1)C(=O)O; Nle = CCCC[C@H](N)C(=O)O

Key:
OATP2B1 = target: T1, OATP2B1 (Homo sapiens, UniProt O94956); assay: Inhibition of prototypical substrate (E3S) uptake by TCMCB07 in HEK293/OATP2B1 cells; format: in vitro ADME
T1 construct: host or cells: HEK293
T1 sequence (O94956 1-709): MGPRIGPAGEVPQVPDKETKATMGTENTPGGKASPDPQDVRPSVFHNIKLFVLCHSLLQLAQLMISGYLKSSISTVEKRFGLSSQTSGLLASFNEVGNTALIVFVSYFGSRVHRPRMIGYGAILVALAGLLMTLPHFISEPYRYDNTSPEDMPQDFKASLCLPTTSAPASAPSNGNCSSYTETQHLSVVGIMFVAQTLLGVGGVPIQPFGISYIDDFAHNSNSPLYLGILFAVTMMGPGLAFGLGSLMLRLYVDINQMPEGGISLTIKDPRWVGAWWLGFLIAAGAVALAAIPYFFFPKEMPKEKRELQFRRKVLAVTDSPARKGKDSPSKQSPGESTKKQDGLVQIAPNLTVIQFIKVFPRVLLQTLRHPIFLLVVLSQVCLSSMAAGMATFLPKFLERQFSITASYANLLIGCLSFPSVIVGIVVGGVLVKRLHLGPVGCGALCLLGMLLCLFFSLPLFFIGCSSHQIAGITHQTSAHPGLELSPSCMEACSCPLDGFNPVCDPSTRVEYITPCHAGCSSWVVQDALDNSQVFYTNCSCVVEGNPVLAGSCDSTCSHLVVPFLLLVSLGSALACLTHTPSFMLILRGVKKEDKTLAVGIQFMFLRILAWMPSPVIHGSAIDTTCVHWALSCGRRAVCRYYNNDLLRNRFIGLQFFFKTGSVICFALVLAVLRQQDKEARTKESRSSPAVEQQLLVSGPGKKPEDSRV
Procedure: (§2) Cells were then washed three times × 1.0 mL each with pre‐warmed Hank's Balanced Salt Solution (HBSS) buffer. A 0.5 mL aliquot of uptake buffer [HBSS plus 10 mM 4‐(2‐hydroxyethyl)‐1‐piperazineethanesulfonic acid (HEPES), pH 7.4], containing the radiolabelled prototypical substrate and mannitol, was then incubated for various times up to 60 min to determine the optimal incubation time for subsequent experiments (i.e. time of sampling during linear uptake conditions). At the designated times, 1.0 mL of ice‐cold HBSS buffer was added to stop uptake after which the cells were rinsed three times with 1.0 mL with ice‐cold HBSS. Hyamine hydroxide (0.33 mL) was then added to each well to lyse the cells. The cells were transferred into a scintillation vial and mixed with 6.0 mL of cytosine scintillation cocktail. Radioactivity of the solubilized cells was determined with a dual‐channel liquid scintillation counter (Beckman LS 6000; Beckman Coulter Inc., Fullerton, CA) and the protein quantified by a bicinchoninic acid protein assay kit (Pierce Biotechnology; Rockford, IL).

OAT3 = target: T2, OAT3 (Homo sapiens, UniProt Q8TCC7); assay: Inhibition of prototypical substrate (E3S) uptake by TCMCB07 in HEK293/OAT3 cells; format: in vitro ADME; conditions: substrate 1.0 μM [3H]E3S, 5.0 min, up to 1000 μM TCMCB07
T2 construct: host or cells: HEK293
T2 sequence (Q8TCC7 1-542): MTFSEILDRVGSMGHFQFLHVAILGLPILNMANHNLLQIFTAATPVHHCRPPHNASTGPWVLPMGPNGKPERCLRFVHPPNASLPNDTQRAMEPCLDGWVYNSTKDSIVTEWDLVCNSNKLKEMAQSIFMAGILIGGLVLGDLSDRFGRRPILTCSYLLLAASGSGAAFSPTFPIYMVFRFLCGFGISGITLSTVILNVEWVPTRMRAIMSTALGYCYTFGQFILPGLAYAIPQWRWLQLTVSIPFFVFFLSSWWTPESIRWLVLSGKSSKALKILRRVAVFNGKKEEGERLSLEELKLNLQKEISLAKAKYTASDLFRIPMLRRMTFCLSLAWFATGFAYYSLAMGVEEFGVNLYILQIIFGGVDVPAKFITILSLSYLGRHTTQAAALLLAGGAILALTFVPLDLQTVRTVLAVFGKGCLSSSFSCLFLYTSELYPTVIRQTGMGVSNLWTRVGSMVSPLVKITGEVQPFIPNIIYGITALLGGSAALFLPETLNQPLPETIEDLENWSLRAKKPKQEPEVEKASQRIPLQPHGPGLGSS
Procedure: as §2

MATE1 = target: T3, MATE1 (Homo sapiens, UniProt Q96FL8); format: in vitro ADME
T3 sequence (Q96FL8 1-570): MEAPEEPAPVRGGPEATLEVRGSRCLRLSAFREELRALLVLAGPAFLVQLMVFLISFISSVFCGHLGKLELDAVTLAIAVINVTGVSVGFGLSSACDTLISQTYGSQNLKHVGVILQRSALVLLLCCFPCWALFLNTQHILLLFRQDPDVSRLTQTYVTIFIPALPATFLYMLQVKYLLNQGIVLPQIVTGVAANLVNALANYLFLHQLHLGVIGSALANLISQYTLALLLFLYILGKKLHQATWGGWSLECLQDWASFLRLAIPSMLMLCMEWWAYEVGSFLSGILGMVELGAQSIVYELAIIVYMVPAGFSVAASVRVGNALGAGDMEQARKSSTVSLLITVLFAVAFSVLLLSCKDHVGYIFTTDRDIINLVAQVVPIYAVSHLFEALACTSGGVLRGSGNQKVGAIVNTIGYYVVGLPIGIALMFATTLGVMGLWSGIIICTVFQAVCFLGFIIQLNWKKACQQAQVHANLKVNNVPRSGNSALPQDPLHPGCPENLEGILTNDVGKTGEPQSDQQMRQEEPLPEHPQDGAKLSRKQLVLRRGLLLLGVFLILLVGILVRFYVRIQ
Procedure: (§1) However, for these studies, a different incubation buffer was used (145 mM NaCl, 3 mM KCl, 1 mM CaCl2, 0.5 mM MgCl2, 5 mM glucose, and 5 mM HEPES, pH 7.4). ^13 Moreover, intracellular acidification was achieved by preincubating the cells in buffer containing 30 mM ammonium chloride for 20 min at 37°C. […] Radioactivity and protein measurements were performed as described previously.

MATE2‐K = MATE2‐K (Homo sapiens, UniProt Q86VL8); format: in vitro ADME
Chain of MATE2‐K (Q86VL8 1-566 isoform Q86VL8-3): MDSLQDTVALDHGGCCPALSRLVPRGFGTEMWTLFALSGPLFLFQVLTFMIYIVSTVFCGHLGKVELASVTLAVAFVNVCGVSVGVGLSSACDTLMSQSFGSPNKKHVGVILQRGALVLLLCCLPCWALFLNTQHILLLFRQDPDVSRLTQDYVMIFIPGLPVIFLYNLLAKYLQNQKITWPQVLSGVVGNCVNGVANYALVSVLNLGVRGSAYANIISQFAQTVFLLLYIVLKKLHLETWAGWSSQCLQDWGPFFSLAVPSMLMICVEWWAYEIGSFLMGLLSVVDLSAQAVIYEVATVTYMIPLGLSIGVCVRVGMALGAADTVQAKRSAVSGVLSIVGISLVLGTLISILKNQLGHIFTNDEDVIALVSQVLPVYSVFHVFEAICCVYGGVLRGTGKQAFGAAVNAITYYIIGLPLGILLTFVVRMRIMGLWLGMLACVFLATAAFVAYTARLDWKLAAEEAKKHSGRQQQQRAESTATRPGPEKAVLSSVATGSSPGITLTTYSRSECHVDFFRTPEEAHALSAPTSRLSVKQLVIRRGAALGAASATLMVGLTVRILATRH
Procedure: as §1

OATP1A2 [1] = target: T4, OATP1A2 (Homo sapiens, UniProt P46721); assay: Inhibition of prototypical substrate (E3S) uptake by TCMCB07 in HEK293/OATP1A2 cells; format: in vitro ADME; parameters: host or cells: HEK293
T4 sequence (P46721 1-670): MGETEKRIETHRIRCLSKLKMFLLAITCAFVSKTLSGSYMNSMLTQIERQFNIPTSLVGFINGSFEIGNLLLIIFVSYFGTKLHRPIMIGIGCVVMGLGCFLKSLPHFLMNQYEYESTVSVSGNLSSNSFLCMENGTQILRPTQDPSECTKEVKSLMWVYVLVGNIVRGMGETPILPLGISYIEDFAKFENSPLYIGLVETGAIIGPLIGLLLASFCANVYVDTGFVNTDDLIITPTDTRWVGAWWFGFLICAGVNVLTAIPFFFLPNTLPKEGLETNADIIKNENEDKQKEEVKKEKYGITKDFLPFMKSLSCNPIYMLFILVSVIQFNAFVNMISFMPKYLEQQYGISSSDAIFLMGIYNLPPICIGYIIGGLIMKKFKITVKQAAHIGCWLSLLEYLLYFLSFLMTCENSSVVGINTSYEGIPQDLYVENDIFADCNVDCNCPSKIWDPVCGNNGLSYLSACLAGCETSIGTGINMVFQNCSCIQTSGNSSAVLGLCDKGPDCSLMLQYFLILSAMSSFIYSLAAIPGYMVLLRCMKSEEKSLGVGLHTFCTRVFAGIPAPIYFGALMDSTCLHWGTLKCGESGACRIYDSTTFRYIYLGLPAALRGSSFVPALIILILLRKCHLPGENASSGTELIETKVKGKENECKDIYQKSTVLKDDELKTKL
Procedure: as §2
Mock and transfected cells (250 000 cells/well) were seeded onto BioCoat poly‐D‐lysine 24 well plates (Corning Inc.) and cultured for 2 days as described previously for the other OATPs. […] Radioactivity and protein measurements were then performed as described previously.

OATP1A2 [2] = target: T4, OATP1A2; assay: Cellular uptake in HEK293/OATP1A2‐transfected versus mock cells
Procedure: Mock and transfected cells (250 000 cells/well) were seeded onto BioCoat poly‐D‐lysine 24 well plates (Corning Inc.) and cultured for 2 days as described previously for the other OATPs. […] Cells were incubated for various times over 10 min for the uptake studies. Radioactivity and protein measurements were then performed as described previously.
Cellular uptake and transepithelial transport were calculated as described previously by our laboratory. ^16 , ^17 , ^18 , ^19 [^3H]mannitol or [^14C]mannitol was used to correct the uptake of [^14C]substrate or [^3H]substrate, respectively, due to filter binding and extracellular content, as well as the transepithelial transport of substrate due to paracellular flux.
Uptake kinetics in mock cells was evaluated by a linear term: (3) v=Slope·C+Yint, where Slope is the non‐saturable rate constant and Yint is the y‐intercept of the line.

IC50 (OATP2B1): 524 ± 83 µM | IC50 (OAT3): could not be determined | IC50 (MATE1): 8.7 ± 0.4 µM | IC50 (MATE2‐K): 20.7 ± 2.1 µM | IC50 (OATP1A2 [1]): 24 ± 2.8 µM | saturable uptake component (V max/K m) as share of total uptake (V max/K m + K d) (OATP1A2 [2]; OATP1A2‐transfected cells, at low concentrations (<< K m)): over 90% | uptake of TCMCB07 in OATP1A2 cells as compared with mock cells (OATP1A2 [2]; at 5 min): 3–4 times greater
Compound: CCCC[C@H](NC(C)=O)C(=O)N[C@H]1CC(=O)NCCCC[C@@H](C(=O)N[C@@H](C(=O)N2CCC[C@@H]2C(N)=O)C(C)C)NC(=O)[C@H](Cc2c[nH]c3ccccc23)NC(=O)[C@H](CCCN=C(N)N)NC(=O)[C@@H](Cc2ccc3ccccc3c2)NC(=O)[C@@H]2CCCN2C1=O [TCMCB07, Ac‐Nle‐c[Asp‐Pro‐dNal2′‐Arg‐Trp‐Lys]‐dVal‐dPro‐NH2] (Ac-[Nle]DP[d2Nal]RWK[dV][dP]-NH2; lactam 2-7)
